According to ChEMBL document CHEMBL3407459, “Synthesis and antimicrobial activity of novel structural hybrids of benzofuroxan and benzothiazole derivatives” (2015):

Tests used:
Escherichia coli [1] = experiment: Antibacterial activity against Escherichia coli MG1655 harboring pIbpA-lux assessed as maximum induction factor at 10^-11 M after 120 mins by luminometric analysis; type: functional, K-12 substr. MG1655
[2] = Activation of quorum sensing system luxR in Escherichia coli MG1655 harboring pVFR1-lux assessed as maximum induction factor at 10^-11 M after 120 mins by luminometric analysis; conditions: Escherichia coli str. K-12 substr. MG1655
Escherichia coli [3] = experiment: Antibacterial activity against Escherichia coli MG1655 harboring pGrpE-lux assessed as maximum induction factor at 10^-12 M after 120 mins by luminometric analysis; type: functional, K-12 substr. MG1655
Escherichia coli [4] = experiment: Antibacterial activity against Escherichia coli MG1655 harboring pIbpA-lux assessed as maximum induction factor at 10^-12 M after 120 mins by luminometric analysis; type: functional, K-12 substr. MG1655
[5] = Activation of quorum sensing system luxR in Escherichia coli MG1655 harboring pVFR1-lux assessed as maximum induction factor at 10^-12 M after 120 mins by luminometric analysis; conditions: Escherichia coli str. K-12 substr. MG1655
Escherichia coli [6] = experiment: Antibacterial activity against Escherichia coli MG1655 harboring pSoxS-lux assessed as maximum induction factor at 10^-13 M after 120 mins by luminometric analysis; type: functional, K-12 substr. MG1655
Escherichia coli [7] = experiment: Antibacterial activity against Escherichia coli MG1655 harboring pIbpA-lux assessed as maximum induction factor at 10^-13 M after 120 mins by luminometric analysis; type: functional, K-12 substr. MG1655
Escherichia coli [8] = experiment: Antibacterial activity against Escherichia coli MG1655 harboring pKatG-lux assessed as maximum induction factor at 10^-14 M after 120 mins by luminometric analysis; type: functional, K-12 substr. MG1655
Escherichia coli [9] = experiment: Antibacterial activity against Escherichia coli MG1655 harboring pRecA-lux assessed as maximum induction factor at 10^-14 M after 120 mins by luminometric analysis; type: functional, K-12 substr. MG1655
Escherichia coli [10] = experiment: Antibacterial activity against Escherichia coli MG1655 harboring pColD-lux assessed as maximum induction factor at 10^-14 M after 120 mins by luminometric analysis; type: functional, K-12 substr. MG1655
Escherichia coli [11] = experiment: Antibacterial activity against Escherichia coli MG1655 harboring pGrpE-lux assessed as maximum induction factor at 10^-14 M after 120 mins by luminometric analysis; type: functional, K-12 substr. MG1655
Vibrio sp. [12] = experiment: Antibacterial activity against Vibrio aqamarinus VKPM B-11245 assessed as toxicity index at 10^-4 M measured for 2 hrs by luminometric analysis; type: functional
Vibrio sp. [13] = experiment: Antibacterial activity against Vibrio aqamarinus VKPM B-11245 assessed as toxicity index at 10^-5 M measured for 2 hrs by luminometric analysis; type: functional
Vibrio sp. [14] = experiment: Antibacterial activity against Vibrio aqamarinus VKPM B-11245 assessed as toxicity index at 10^-8 M measured for 2 hrs by luminometric analysis; type: functional
Vibrio sp. [15] = experiment: Antibacterial activity against Vibrio aqamarinus VKPM B-11245 assessed as toxicity index at 10^-11 M measured for 2 hrs by luminometric analysis; type: functional
Vibrio sp. [16] = experiment: Antibacterial activity against Vibrio aqamarinus VKPM B-11245 assessed as toxicity index at 10^-12 M measured for 2 hrs by luminometric analysis; type: functional
Escherichia coli [17] = experiment: Antibacterial activity against Escherichia coli MG1655 harboring pXen7 assessed as toxicity index at 10^-3 M measured for 2 hrs by luminometric analysis; type: functional, K-12 substr. MG1655
Escherichia coli [18] = experiment: Antibacterial activity against Escherichia coli MG1655 harboring pXen7 assessed as toxicity index at 10^-6 M measured for 2 hrs by luminometric analysis; type: functional, K-12 substr. MG1655
Escherichia coli [19] = experiment: Antibacterial activity against Escherichia coli MG1655 harboring pXen7 assessed as toxicity index at 10^-13 M measured for 2 hrs by luminometric analysis; type: functional, K-12 substr. MG1655
Escherichia coli [20] = experiment: Antibacterial activity against Escherichia coli MG1655 harboring pColD-lux assessed as maximum induction factor at 10^-3 M after 120 mins by luminometric analysis; type: functional, K-12 substr. MG1655
Escherichia coli [21] = experiment: Antibacterial activity against Escherichia coli MG1655 harboring pGrpE-lux assessed as maximum induction factor at 10^-3 M after 120 mins by luminometric analysis; type: functional, K-12 substr. MG1655
Escherichia coli [22] = experiment: Antibacterial activity against Escherichia coli MG1655 harboring pSoxS-lux assessed as maximum induction factor at 10^-4 M after 120 mins by luminometric analysis; type: functional, K-12 substr. MG1655
Escherichia coli [23] = experiment: Antibacterial activity against Escherichia coli MG1655 harboring pRecA-lux assessed as maximum induction factor at 10^-4 M after 120 mins by luminometric analysis; type: functional, K-12 substr. MG1655
Escherichia coli [24] = experiment: Antibacterial activity against Escherichia coli MG1655 harboring pColD-lux assessed as maximum induction factor at 10^-4 M after 120 mins by luminometric analysis; type: functional, K-12 substr. MG1655
[25] = Activation of quorum sensing system luxR in Escherichia coli MG1655 harboring assessed as maximum induction factor at 10^-4 M after 120 mins by luminometric analysis; conditions: Escherichia coli str. K-12 substr. MG1655
Escherichia coli [26] = experiment: Antibacterial activity against Escherichia coli MG1655 harboring pKatG-lux assessed as maximum induction factor at 10^-5 M after 120 mins by luminometric analysis; type: functional, K-12 substr. MG1655
Escherichia coli [27] = experiment: Antibacterial activity against Escherichia coli MG1655 harboring pColD-lux assessed as maximum induction factor at 10^-5 M after 120 mins by luminometric analysis; type: functional, K-12 substr. MG1655
Escherichia coli [28] = experiment: Antibacterial activity against Escherichia coli MG1655 harboring pSoxS-lux assessed as maximum induction factor at 10^-6 M after 120 mins by luminometric analysis; type: functional, K-12 substr. MG1655
Escherichia coli [29] = experiment: Antibacterial activity against Escherichia coli MG1655 harboring pRecA-lux assessed as maximum induction factor at 10^-6 M after 120 mins by luminometric analysis; type: functional, K-12 substr. MG1655
Escherichia coli [30] = experiment: Antibacterial activity against Escherichia coli MG1655 harboring pIbpA-lux assessed as maximum induction factor at 10^-6 M after 120 mins by luminometric analysis; type: functional, K-12 substr. MG1655
Escherichia coli [31] = experiment: Antibacterial activity against Escherichia coli MG1655 harboring pColD-lux assessed as maximum induction factor at 10^-7 M after 120 mins by luminometric analysis; type: functional, K-12 substr. MG1655
Escherichia coli [32] = experiment: Antibacterial activity against Escherichia coli MG1655 harboring pSoxS-lux assessed as maximum induction factor at 10^-8 M after 120 mins by luminometric analysis; type: functional, K-12 substr. MG1655
Escherichia coli [33] = experiment: Antibacterial activity against Escherichia coli MG1655 harboring pGrpE-lux assessed as maximum induction factor at 10^-9 M after 120 mins by luminometric analysis; type: functional, K-12 substr. MG1655
Escherichia coli [34] = experiment: Antibacterial activity against Escherichia coli MG1655 harboring pIbpA-lux assessed as maximum induction factor at 10^-9 M after 120 mins by luminometric analysis; type: functional, K-12 substr. MG1655
[35] = Activation of quorum sensing system luxR in Escherichia coli MG1655 harboring pVFR1-lux assessed as maximum induction factor at 10^-9 M after 120 mins by luminometric analysis; conditions: Escherichia coli str. K-12 substr. MG1655
Escherichia coli [36] = experiment: Antibacterial activity against Escherichia coli MG1655 harboring pSoxS-lux assessed as maximum induction factor at 10^-10 M after 120 mins by luminometric analysis; type: functional, K-12 substr. MG1655
Escherichia coli [37] = experiment: Antibacterial activity against Escherichia coli MG1655 harboring pKatG-lux assessed as maximum induction factor at 10^-10 M after 120 mins by luminometric analysis; type: functional, K-12 substr. MG1655
Escherichia coli [38] = experiment: Antibacterial activity against Escherichia coli MG1655 harboring pRecA-lux assessed as maximum induction factor at 10^-10 M after 120 mins by luminometric analysis; type: functional, K-12 substr. MG1655
Escherichia coli [39] = experiment: Antibacterial activity against Escherichia coli MG1655 harboring pIbpA-lux assessed as maximum induction factor at 10^-10 M after 120 mins by luminometric analysis; type: functional, K-12 substr. MG1655

O=[N+]([O-])c1cc([N+](=O)[O-])c2no[n+]([O-])c2c1Sc1nc2ccccc2s1
Activity (Escherichia coli [1]): 1.47 | Activity [2]: 1.51 | Activity (Escherichia coli [3]): 1.31 | Activity (Escherichia coli [4]): 1.25 | Activity [5]: 2.96 | Activity (Escherichia coli [6]): 1.03 | Activity (Escherichia coli [7]): 1.37 | Activity (Escherichia coli [8]): 0.78 | Activity (Escherichia coli [9]): 1.07 | Activity (Escherichia coli [10]): 1.07 | Activity (Escherichia coli [11]): 1.13 | Activity (Vibrio sp. [12]): 99.1 | Activity (Vibrio sp. [13]): 98.83 | Activity (Vibrio sp. [14]): 5.97 | Activity (Vibrio sp. [15]): 19.14 | Activity (Vibrio sp. [16]): 0 | Activity (Escherichia coli [17]): 99.87 | Activity (Escherichia coli [18]): 10.3 | Activity (Escherichia coli [19]): 0 | Activity (Escherichia coli [20]): 0.08 | Activity (Escherichia coli [21]): 0.35 | Activity (Escherichia coli [22]): 2.71 | Activity (Escherichia coli [23]): 0.85 | Activity (Escherichia coli [24]): 1.48 | Activity [25]: 0.99 | Activity (Escherichia coli [26]): 0.71 | Activity (Escherichia coli [27]): 0.87 | Activity (Escherichia coli [28]): 1.28 | Activity (Escherichia coli [29]): 0.92 | Activity (Escherichia coli [30]): 1.28 | Activity (Escherichia coli [31]): 1.07 | Activity (Escherichia coli [32]): 1.27 | Activity (Escherichia coli [33]): 1.03 | Activity (Escherichia coli [34]): 1.09 | Activity [35]: 1.74 | Activity (Escherichia coli [36]): 1.33 | Activity (Escherichia coli [37]): 1.02 | Activity (Escherichia coli [38]): 1 | Activity (Escherichia coli [39]): 1.14
